From ChEMBL document CHEMBL3046349, “Novel Mechanisms of Drug Action: Functional Selectivity at D2 Dopamine Receptors” (Med Chem Res, 2004)

Species on record: Rattus norvegicus
Assay: Selectivity ratio of K0.5 for Rattus norvegicus Sprague-Dawley (rat) striatum dopamine D2 receptor to K0.5 for Sprague-Dawley Rattus norvegicus (rat) striatum dopamine D1 receptor
Assay type: tissue-based

## Oc1cc2c(cc1O)[C@H]1c3ccccc3CN[C@@H]1CC2 (relative stereo)
  Ratio: 10
